Test results from patent US7943606B2, “Compositions and methods to control abnormal cell growth” (CanCure Laboratories, LLC, priority 2005, dated 2011).

Columns and labels:
MXT tumor = experiment: MXT mouse mammary tumor model: tumor volume and survival; type: in vivo; conditions: Example 31
From the text: Tumors were developed in first generation hybrid BDF1 (C57 B1 female×DBA/2 male) adult female mice kept at specified pathogen free (SPF) hygienic level. Suspensions of HL-60 human leukemia cells, or approximately 0.1 cm^3 volume of tumor tissue derived from HT-168 human melanoma, PC-3 human prostate adenocarcinoma, T47D human breast carcinoma, MXT mouse mammary cancer, or mouse B16 melanoma cells were implanted subcutaneously to develop the tumors. After 12-18 days when the tumor-bearing mice were first treated, the size of the tumors was in the 0.2-0.4 cm^3 range. All compounds used were dissolved in physiological (0.9%) saline (NaCl), and the agents, alone or in combinations, were applied subcutaneously or intraperitoneally in 50 μl volume. Tumor volume was determined by calipers in three dimensions; this technique is well known to one having ordinary skill in the art. Tumor volume was calculated according to the generally accepted formula: V=a^2×b×π/6, where “a” and “b” mean the shortest and longest diameter, respectively, of the measured tumor.
The mouse mammary MXT tumor was developed as described above. On day 7 after transplantation of tumor cells, the animals were either remained untreated (group 1) or were treated with 2 mg/kg of CisPt alone (Group 2), or 4 mg/kg of CisPt alone (Group 3), or 4.6 mg/kg of CCDTHT alone (Group 4), or 2 mg/kg of CisPt+4.6 mg/kg of CCDTHT (Group 5), or 4 mg/kg of CisPt+4.6 mg/kg of CCDTHT (Group 6). CCDTHT and CisPt were administered subcutaneously and intraperitoneally, respectively, once daily for 10 days, including a 2-day rest period after 5 days of treatment (i.e., the last treatment was on day 19). Each group consisted of 7 animals, and the mean values±std. dev. for tumor volumes and body weight are shown in TABLE 4 and TABLE 5, respectively. While in this tumor model CCDTHT alone reduced the tumor volume less effectively than in the human tumor models, it clearly added to the tumor volume-reducing effect of CisPt (TABLE 4). A dramatic reduction in tumor volume was particularly evident in Group 6 (4 mg/kg CisPt+4.6 mg/kg CCDTHT).
The mouse mammary MXT tumor model was developed and treated as described above. On day 7 the animals were either remained untreated (Group 1) or were treated with 3 mg/kg of CisPt (Group 2) or 3 mg/kg of CisPt+15 mg/kg of highly purified PALP (Group 3). CisPt and PALP were administered intraperitoneally and subcutaneously, respectively, seven times on every second day (i.e., treatments were terminated on day 21). Each group included 7 animals; the mean values±std. dev. for tumor volumes and body weight are shown in TABLE 6 and TABLE 7, respectively.
The mouse mammary MXT tumor model was developed and treated as described above. On day 7 the animals either remained untreated (Group 1) or were treated with 3 mg/kg CisPt (Group 2), 3 mg/kg CisPt+4.6 mg/kg of CCDTHT (Group 3), or 3 mg/kg CisPt+4.6 mg/kg of CCDTHT+15 mg/kg highly purified PALP (Group 4). CisPt was administered intraperitoneally 9-times once every second day; CCDTHT was administered for 15 days once daily; and PALP was administered 3 times every 3rd day. In each group 7 mice were included. The mean values±std. dev. for tumor volumes and body weights are shown in TABLE 9 and TABLE 10, respectively.

HepG2 cells = experiment: Viability of HepG2 hepatoblastoma cells (MTT assay); type: cell-based, human; conditions: 50 and 100 μM, 10 days
Procedure: To quantify cell death, around the time when significant and characteristic morphological changes took place, cells were pulse-labeled for 10 minutes with [^3H]thymidine to measure DNA activity as described elsewhere [Tomono, M. and Kiss, Z. (1995), “Ethanol enhances the stimulatory effects of insulin and insulin-like growth factor-I on DNA synthesis in NIH 3T3 fibroblasts,” Biochem. Biophys. Res. Commun. 208, 63-67]. Also, cells were collected as suspensions using trypsin, an established method in cell biology, followed by re-plating of cells in fresh tissue culture medium. If no viable cells were obtained after one week in culture, it meant that the cells at the time of re-plating were dead. Survival values obtained with untreated cells were considered 100%. For the determination of relative number of viable cells after treatments, in most cases the MTT assay was used. This calorimetric assay is based on the ability of living cells, but not dead cells, to reduce 3-(4,5-dimethyl thiazol-2-yl)-2,5-diphenyltetrazolium bromide [Carmichael, J, De Graff, W. G., Gazdar, A. F., Minna, J. D. and Mitchell, J. B. (1987), “Evaluation of tetrazolium-based semi-automated calorimetric assay: Assessment of chemosensitivity testing,” Cancer Res. 47, 936-942]. For this assay, cells were plated in 96-well plates, and the MTT assay was performed both in untreated and treated cell cultures. […]

[1] = CisPt 2 mg/kg i.p. and/or CCDTHT 4.6 mg/kg s.c., once daily

Compound: CC[N+](C)(CC)CCOCc1ccc2sc3ccccc3c(=O)c2c1.[I-] [CCDTHT, N,N-diethyl-N-methyl-2-[(9-oxo-9H-thioxanthen-2-yl)methoxy]-ethanaminium iodide]
- survival (MXT tumor; CisPt 2 mg/kg and/or CCDTHT 4.6 mg/kg (groups 2, 4, 5)): 30.6 ± 3.2 days
- Tumor volume, Day 14 (MXT tumor; [1]): 4.14 ± 0.71 cm^3
- Tumor volume, Day 18 (MXT tumor; [1]): 6.62 ± 0.43 cm^3
- Tumor volume, Day 21 (MXT tumor; [1]): 9.35 ± 0.69 cm^3
- Tumor volume, Day 7 (MXT tumor; CisPt 2 mg/kg i.p. and/or CCDTHT 4.6 mg/kg s.c., start of treatment): 0.43 ± 0.07 cm^3
- sensitivity to the inhibitory actions, HepG2 (HepG2 cells): moderately sensitive
